Experimental data: ChEMBL document CHEMBL5725495, “Heterocyclylamines as PI3K inhibitors” (2017)
pIC50: −log10 of the molar value.

Assay: A2 PI3Kdelta Scintillation Proximity Assay: Lipid kinase substrate, phosphoinositol-4,5-bisphosphate (PIP2), are purchased from Echelon Biosciences (Salt Lake City, Utah). PI3K isoforms α, β, δ and γ are purchased from Millipore (Bedford, Mass.). ATP, MgCl2, DTT, EDTA, MOPS and CHAPS are purchased from Sigma-Aldrich (St. Louis, Mo.). The kinase reaction are conducted in clear-bottom 96-well plate from Thermo Fisher Scientific in a final volume of 24 μL. Inhibitors are first diluted serially in DMSO and added to the plate wells before the addition of other reaction components. The final concentration of DMSO in the assay is 0.5%. The PI3K assays are carried out at room temperature in 20 mM MOPS, pH 6.7, 10 mM MgCl2, 5 mM DTT and CHAPS 0.03%. The reaction mixture is prepared containing 50 μM PIP2, kinase and varying concentration of inhibitors. Reactions are initiated by the addition of ATP containing 2.2 μCi [γ-33P]ATP to a final concentration of 1000 μM. The final concentration of PI3K isoforms α, β, δ and γ in the assay were 1.3, 9.4, 2.9 and 10.8 nM, respectively. Reactions are incubated for 180 minutes and terminated by the addition of 100 μL of 1 M potassium phosphate pH 8.0, 30 mM EDTA quench buffer. A 100 μL aliquot of the reaction solution are then transferred to 96-well Millipore MultiScreen IP 0.45 μm PVDF filter plate (The filter plate is prewetted with 200 μL 100% ethanol, distilled water, and 1 M potassium phosphate pH 8.0, respectively). The filter plate is aspirated on a Millipore Manifold under vacuum and washed with 18×200 μL wash buffer containing 1 M potassium phosphate pH 8.0 and 1 mM ATP. After drying by aspiration and blotting, the plate is air dried in an incubator at 37° C. overnight. Packard TopCount adapter (Millipore) is then attached to the plate followed with addition of 120 μL Microscint 20 scintillation cocktail (Perkin Elmer) in each well. After the plate sealing, the radioactivity of the product is determined by scintillation counting on Topcount (Perkin-Elmer). IC50 determination is performed by fitting the curve of percent control activity versus the log of the inhibitor concentration using the GraphPad Prism 3.0 software.
Set-up: species or system Homo sapiens

| pIC50 | SMILES |
| --- | --- |
| > 8.00 | COc1c(C(C)n2nc(C)c3c(N)ncnc32)cc(Cl)c(C)c1C1CN(C[C@H](C)O)C1 (stereo partly drawn) |
| > 8.00 | COc1c(C(C)n2nc(C)c3c(N)ncnc32)cc(Cl)c(C#N)c1C1CN(CCO)C1 (stereo not drawn) |
| > 8.00 | COc1c([C@@H](C)n2nc(C(F)F)c3c(N)ncnc32)cc(Cl)c(F)c1C1CN(C)C1 |
| > 8.00 | CCOc1c(C(C)n2nc(C)c3c(N)ncnc32)cc(Cl)c(F)c1C1CN(C[C@H](C)O)C1 (stereo partly drawn) |
| > 8.00 | COc1c([C@H](C)n2nc(C)c3c(N)ncnc32)cc(Cl)c(C#N)c1C1CN(CC2CCOC2)C1 (stereo partly drawn) |
| > 8.00 | COc1c([C@H](C)n2nc(C)c3c(N)ncnc32)cc(Cl)c(C#N)c1C1CN(C(C)CO)C1 (stereo partly drawn) |
| > 8.00 | COc1c([C@@H](C)n2nc(C)c3c(N)ncnc32)cc(Cl)c(C#N)c1C1CN(C(C)CO)C1 (stereo partly drawn) |
| > 8.00 | CCOc1c([C@@H](C)n2nc(C)c3c(N)ncnc32)cc(Cl)c(F)c1C1CN(C(C)C)C1 (single isomer, unassigned) |
| > 8.00 | CCOc1c(C(C)n2nc(C)c3c(N)ncnc32)cc(Cl)c(C)c1-c1ccc(C(=O)N(C)C)nc1 (stereo not drawn) |
| > 8.00 | COc1c([C@@H](C)n2nc(C)c3c(N)ncnc32)cc(Cl)c(C#N)c1C1CN(C2CCOC2)C1 (stereo partly drawn) |
| > 8.00 | COc1c([C@@H](C)n2nc(C(F)F)c3c(N)ncnc32)cc(Cl)c(F)c1C1CN(CCO)C1 (single isomer, unassigned) |
| > 8.00 | CCOc1c([C@@H](C)n2nc(C)c3c(N)ncnc32)cc(Cl)c(C#N)c1C1CN(C(C)CO)C1 (stereo partly drawn) |
| > 8.00 | CCOc1c([C@H](C)n2nc(C)c3c(N)ncnc32)cc(Cl)c(C#N)c1C1CN(C(C)CO)C1 (stereo partly drawn) |
| > 8.00 | COc1c(C(C)n2cc(C)c3c(N)ncnc32)cc(Cl)c(C#N)c1C1CN(C(C)C)C1 (stereo not drawn) |
| > 8.00 | COc1c(C(C)n2nc(C(F)F)c3c(N)ncnc32)cc(C#N)c(C)c1C1CN(C[C@H](C)O)C1 (stereo partly drawn) |
| > 8.00 | COc1c([C@@H](C)n2nc(C)c3c(N)ncnc32)cc(Cl)c(C#N)c1C1CN(CC2CCOC2)C1 (stereo partly drawn) |
| > 8.00 | CCOc1c([C@H](C)n2nc(C)c3c(N)ncnc32)cc(Cl)c(C#N)c1C1CN(CCOC)C1 |

| SMILES | pIC50 |
| --- | --- |
| COc1c(C(C)n2nc(C)c3c(N)ncnc32)cc(Cl)c(C)c1-c1ccc(C(=O)N(C)C)nc1 (stereo not drawn) | > 8.00 |
